This test concerns the target T1, hPARG (Homo sapiens, UniProt Q86W56).
T1 construct: made in house; host or cells: E. coli
The test can be described thus: PARG enzymatic activity assay (HTRF). The format is biochemical. Particulars: C-terminal His6-tag hPARG 65 pM, biotinylated-NAD ribosylated PARP1 substrate 8 nM. In short, it runs like this:
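His6-tagged hPARG from E. coli (65 pM final) preincubated 60 min RT with compound (10-point 4-fold dilution), then 8 nM biotinylated NAD-ribosylated PARP1 added for 10 min RT in Tris pH 7.4 buffer with EDTA, EGTA, DTT, KCl. HTRF detection (Eu-streptavidin/anti-His XL665, 620/665 nm); IC50 from 4-parameter fit against DMSO and no-enzyme controls.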
On the technique in general: In TR-FRET formats the signal depends on donor and acceptor labels being close together.
T1 sequence (Q86W56 whole entry): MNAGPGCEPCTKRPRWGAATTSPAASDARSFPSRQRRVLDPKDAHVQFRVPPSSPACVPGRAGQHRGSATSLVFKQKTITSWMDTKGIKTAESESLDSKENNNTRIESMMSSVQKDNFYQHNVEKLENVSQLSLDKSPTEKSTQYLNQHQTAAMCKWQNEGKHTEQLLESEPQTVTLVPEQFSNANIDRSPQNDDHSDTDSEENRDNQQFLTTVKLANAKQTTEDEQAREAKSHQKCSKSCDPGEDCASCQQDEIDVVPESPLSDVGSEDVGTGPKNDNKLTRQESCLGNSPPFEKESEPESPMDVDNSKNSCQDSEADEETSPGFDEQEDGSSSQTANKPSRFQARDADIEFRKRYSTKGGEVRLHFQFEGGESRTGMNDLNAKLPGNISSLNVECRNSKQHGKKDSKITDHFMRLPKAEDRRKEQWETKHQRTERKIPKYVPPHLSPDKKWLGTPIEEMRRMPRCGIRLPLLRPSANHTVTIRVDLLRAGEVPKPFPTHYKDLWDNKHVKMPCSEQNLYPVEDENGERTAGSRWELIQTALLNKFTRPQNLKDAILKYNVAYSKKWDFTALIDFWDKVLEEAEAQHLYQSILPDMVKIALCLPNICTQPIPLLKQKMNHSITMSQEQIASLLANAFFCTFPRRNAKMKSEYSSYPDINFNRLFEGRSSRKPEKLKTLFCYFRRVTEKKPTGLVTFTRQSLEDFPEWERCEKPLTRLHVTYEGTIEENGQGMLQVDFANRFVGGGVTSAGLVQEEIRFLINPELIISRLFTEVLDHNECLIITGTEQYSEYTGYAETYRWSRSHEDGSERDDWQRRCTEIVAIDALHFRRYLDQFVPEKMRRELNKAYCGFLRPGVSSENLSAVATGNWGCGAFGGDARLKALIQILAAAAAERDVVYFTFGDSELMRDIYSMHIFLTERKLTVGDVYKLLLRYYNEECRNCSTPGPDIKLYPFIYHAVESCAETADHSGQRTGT
What is called IC50 is the concentration that gives 50% inhibition. Higher therefore signals a need for much substance. `CN(CCN1CCCC1=O)c1ncnc2c1c1ccc(S(=O)(=O)NC3(C#N)CC3)cc1n2-c1nnc(C(F)F)s1` [Example 61, N-(1-Cyanocyclopropyl)-9-(5-(difluoromethyl)-1,3,4-thiadiazol-2-yl)-4-(methyl(2-(2-oxopyrrolidin-1-yl)ethyl)amino)-9H-pyrimido[4,5-b]indole-7-sulfonamide] came in with a half-maximal inhibitory concentration (IC50) of 100 to 1000 nM.
The figure for `CN(CC1(C#N)CC1)c1ncnc2c1c1ccc(S(=O)(=O)NC3(C#N)CC3)cc1n2-c1nnc(C(F)F)s1` [Example 75, N-(1-Cyanocyclopropyl)-4-(((1-cyanocyclopropyl)methyl)(methyl)amino)-9-(5-(difluoromethyl)-1,3,4-thiadiazol-2-yl)-9H-pyrimido[4,5-b]indole-7-sulfonamide] is no more than 100 nM; for `CN(C)[C@H]1CCCC[C@@H]1N(C)c1ncnc2c1c1ccc(S(=O)(=O)NC3(C#N)CC3)cc1n2-c1nnc(C(F)F)s1` [Example 74, N-(1-Cyanocyclopropyl)-9-(5-(difluoromethyl)-1,3,4-thiadiazol-2-yl)-4-(((1S,2S)-2-(dimethylamino)cyclohexyl)(methyl)amino)-9H-pyrimido[4,5-b]indole-7-sulfonamide] it is no more than 100 nM; for `CC(C)(O)CCc1ncnc2c1c1ccc(S(=O)(=O)NC3(C#N)CC3)cc1n2-c1nnc(C(F)F)s1` [Example 89, N-(1-Cyanocyclopropyl)-9-(5-(difluoromethyl)-1,3,4-thiadiazol-2-yl)-4-(3-hydroxy-3-methylbutyl)-9H-pyrimido[4,5-b]indole-7-sulfonamide] it is 100 to 1000 nM.
The result for `N#CC1(NS(=O)(=O)c2ccc3c4c(NCC5COCCO5)ncnc4n(-c4nnc(C(F)F)s4)c3c2)CC1` (stereo not shown) [Example 79, 4-(((1,4-Dioxan-2-yl)methyl)amino)-N-(1-cyanocyclopropyl)-9-(5-(difluoromethyl)-1,3,4-thiadiazol-2-yl)-9H-pyrimido[4,5-b]indole-7-sulfonamide] reads no more than 100 nM.
The result for `CN1CC2CN(c3ncnc4c3c3ccc(S(=O)(=O)NC5(C#N)CC5)cc3n4-c3nnc(C(F)F)s3)CC2C1` (stereo not shown) [Example 29, N-(1-Cyanocyclopropyl)-9-(5-(difluoromethyl)-1,3,4-thiadiazol-2-yl)-4-(5-methylhexahydropyrrolo[3,4-c]pyrrol-2(1H)-yl)-9H-pyrimido[4,5-b]indole-7-sulfonamide] reads no more than 100 nM; that for `CCN(CC)[C@@H]1CCN(c2ncnc3c2c2ccc(S(=O)(=O)NC4(C#N)CC4)cc2n3-c2nnc(C(F)F)s2)C[C@@H]1F` [Example 33, N-(1-Cyanocyclopropyl)-4-((3S,4R)-4-(diethylamino)-3-fluoropiperidin-1-yl)-9-(5-(difluoromethyl)-1,3,4-thiadiazol-2-yl)-9H-pyrimido[4,5-b]indole-7-sulfonamide], no more than 100 nM.
In turn, `CCN(CC)C1C[C@H]2C[C@@H]1CN2c1ncnc2c1c1ccc(S(=O)(=O)NC3(C#N)CC3)cc1n2-c1nnc(C(F)F)s1` (stereo partly drawn) [Example 39, N-(1-Cyanocyclopropyl)-4-((1R,4R)-5-(diethylamino)-2-azabicyclo[2.2.1]heptan-2-yl)-9-(5-(difluoromethyl)-1,3,4-thiadiazol-2-yl)-9H-pyrimido[4,5-b]indole-7-sulfonamide] came in with a half-inhibitory concentration (IC50) of no more than 100 nM.
The result for `Cc1nc(C)n(CCN(C)c2ncnc3c2c2ccc(S(=O)(=O)NC4(C#N)CC4)cc2n3-c2nnc(C(F)F)s2)n1` [Example 71, N-(1-Cyanocyclopropyl)-9-(5-(difluoromethyl)-1,3,4-thiadiazol-2-yl)-4-((2-(3,5-dimethyl-1H-1,2,4-triazol-1-yl)ethyl)(methyl)amino)-9H-pyrimido[4,5-b]indole-7-sulfonamide] reads greater than 1000 nM; that for `CN(CCN1CCC(F)(F)CC1)c1ncnc2c1c1ccc(S(=O)(=O)NC3(C#N)CC3)cc1n2-c1nnc(C(F)F)s1` [Example 77, N-(1-Cyanocyclopropyl)-9-(5-(difluoromethyl)-1,3,4-thiadiazol-2-yl)-4-((2-(4,4-difluoropiperidin-1-yl)ethyl)(methyl)amino)-9H-pyrimido[4,5-b]indole-7-sulfonamide], 100 to 1000 nM; that for `CN(c1ncnc2c1c1ccc(S(=O)(=O)NC3(C#N)CC3)cc1n2-c1nnc(C(F)F)s1)[C@H]1CCOC1` [Example 70, (S)-N-(1-Cyanocyclopropyl)-9-(5-(difluoromethyl)-1,3,4-thiadiazol-2-yl)-4-(methyl(tetrahydrofuran-3-yl)amino)-9H-pyrimido[4,5-b]indole-7-sulfonamide], 100 to 1000 nM.
The result for `CN(CCN1CCS(=O)(=O)CC1)c1ncnc2c1c1ccc(S(=O)(=O)NC3(C#N)CC3)cc1n2-c1nnc(C(F)F)s1` [Example 78, N-(1-Cyanocyclopropyl)-9-(5-(difluoromethyl)-1,3,4-thiadiazol-2-yl)-4-((2-(1,1-dioxidothiomorpholino)ethyl)(methyl)amino)-9H-pyrimido[4,5-b]indole-7-sulfonamide] reads no more than 100 nM; that for `N#CC1(NS(=O)(=O)c2ccc3c4c(OCCCN5CCOCC5)ncnc4n(-c4nnc(C(F)F)s4)c3c2)CC1` [Example 2, N-(1-Cyanocyclopropyl)-9-(5-(difluoromethyl)-1,3,4-thiadiazol-2-yl)-4-(3-morpholinopropoxy)-9H-pyrimido[4,5-b]indole-7-sulfonamide], no more than 100 nM.
On to `CN(CC1COCCN1C)c1ncnc2c1c1ccc(S(=O)(=O)NC3(C#N)CC3)cc1n2-c1nnc(C(F)F)s1` (stereo not shown) [Example 64, N-(1-Cyanocyclopropyl)-9-(5-(difluoromethyl)-1,3,4-thiadiazol-2-yl)-4-(methyl((4-methylmorpholin-3-yl)methyl)amino)-9H-pyrimido[4,5-b]indole-7-sulfonamide], for which the IC50 is no more than 100 nM.
For the molecule `CN(C)CCN(C)c1ncnc2c1c1ccc(S(=O)(=O)NC3(C#N)CC3)cc1n2-c1nnc(C(F)F)s1` [Example 62, N-(1-Cyanocyclopropyl)-9-(5-(difluoromethyl)-1,3,4-thiadiazol-2-yl)-4-((2-(dimethylamino)ethyl)(methyl)amino)-9H-pyrimido[4,5-b]indole-7-sulfonamide], the IC50 was no more than 100 nM.
The result for `CN(CCO)c1ncnc2c1c1ccc(S(=O)(=O)NC3(C#N)CC3)cc1n2-c1nnc(C(F)F)s1` [Example 63, N-(1-Cyanocyclopropyl)-9-(5-(difluoromethyl)-1,3,4-thiadiazol-2-yl)-4-((2-hydroxyethyl)(methyl)amino)-9H-pyrimido[4,5-b]indole-7-sulfonamide] reads no more than 100 nM; that for `COCCSc1ncnc2c1c1ccc(S(=O)(=O)NC3(C#N)CC3)cc1n2-c1nnc(C(F)F)s1` [Example 84, N-(1-Cyanocyclopropyl)-9-(5-(difluoromethyl)-1,3,4-thiadiazol-2-yl)-4-((2-methoxyethyl)thio)-9H-pyrimido[4,5-b]indole-7-sulfonamide], 100 to 1000 nM; that for `N#CC1(NS(=O)(=O)c2ccc3c4c(OCC5COCCN5)ncnc4n(-c4nnc(C(F)F)s4)c3c2)CC1` (stereo not shown) [Example 92, N-(1-cyanocyclopropyl)-9-(5-(difluoromethyl)-1,3,4-thiadiazol-2-yl)-4-(morpholin-3-ylmethoxy)-9H-pyrimido[4,5-b]indole-7-sulfonamide], 100 to 1000 nM.
In turn, `CSc1ncnc2c1c1ccc(S(=O)(=O)NC3(C#N)CC3)cc1n2-c1nnc(C(F)F)s1` [Example 25, N-(1-cyanocyclopropyl)-9-(5-(difluoromethyl)-1,3,4-thiadiazol-2-yl)-4-(methylthio)-9H-pyrimido[4,5-b]indole-7-sulfonamide] returned a 50% inhibitory concentration (IC50) of no more than 100 nM.

The record behind these values is patent US20260049088A1, “TRICYCLIC HETEROCYCLIC DERIVATIVES, COMPOSITIONS AND USES THEREOF” (Danatlas Pharmaceuticals Co., Ltd., priority 2023, published 2026).
